For orientation: CC50 means the concentration giving 50% cytotoxicity. Usually Cmax stands for the peak of the concentration-time curve. Broadly, the bioavailability is dose-corrected exposure relative to a reference, in per cent. A lower bioavailability goes with little systemic uptake.

Molecules are shown by their SMILES. The source made the active and inactive calls. No cut-off for these calls is given here. Bounds are passed on as bounds.

This note sets out measurements from ChEMBL document CHEMBL6109121, “Discovery of Novel Sulfonylurea NLRP3 Inflammasome Inhibitor for the Treatment of Multiple Inflammatory Diseases” (J Med Chem, 2025).

The nature of data set [1]: Cytotoxicity against male C57BL/6J mouse BMDM cells. It counts as functional.
In data set [2] the test system is BMDM. The experiment in a line: Inhibition of NLRC4 inflammasome activation in LPS/flagellin-stimulated male C57BL/6J mouse BMDM cells assessed as inhibition of IL-1beta secretion pretreated with LPS followed by compound addition for 4 hrs and measured after 2 hrs of Salmonella typhimurium flagellin addition by ELISA. In kind it is cell-based. The following applies: time 6.0 hrs. A general note: An ELISA detects its analyte on a solid surface through an enzyme-linked reagent.

The subject of data set [3] is BMDM. The experiment in a line: Inhibition of NLRP3 inflammasome activation at initiation phase in LPS/ATP-stimulated male C57BL/6J mouse BMDM cells assessed as inhibition of TNF-alpha secretion […] for 4 hrs followed by compound administration for 30 mins and measured after 1 hrs of ATP addition by ELISA. Conditions: time 1.5 hrs. In kind it is cell-based.

For data set [4], the system named is BMDM. The experiment in a line: Inhibition of NLRP3 inflammasome activation at initiation phase in LPS/ATP-stimulated male C57BL/6J mouse BMDM cells assessed as inhibition of IL6 secretion […] for 4 hrs followed by compound administration for 30 mins and measured after 1 hrs of ATP addition by ELISA. It counts as cell-based. The following applies: time 1.5 hrs.

Data set [5] in a line: Cmax in male ICR (CD-1) mouse at 20 mg/kg, po by LC-MS/MS analysis. Conditions: in vivo. It counts as ADME, organism-based.
The nature of data set [6]: Oral bioavailability in male ICR (CD-1) mouse at 20 mg/kg by LC-MS/MS analysis. In kind it is ADME, organism-based. The following applies: in vivo.
In data set [7] the test system is Mus musculus. As to the kind of experiment: Anti-inflammatory activity in LPS/ATP-induced acute peritonitis male C57BL/6J mouse model assessed as survival rate at 1 mg/kg, po preadministered with compound for 1 hrs followed by LPS addition for 2 hrs and further administered with ATP and measured 21 hrs post LPS administration relative to control. In kind it is functional. Conditions: time 22 hrs.

Data set [8] relates to Mus musculus. The experiment in a line: Anti-inflammatory activity in LPS/ATP-induced acute peritonitis male C57BL/6J mouse model assessed as survival rate at 20 mg/kg, po preadministered with compound for 1 hrs followed by LPS addition for 2 hrs and further administered with ATP and measured 21 hrs post LPS administration relative to control. It counts as functional. Conditions: time 22 hrs.

In data set [9] the target is NACHT, LRR and PYD domains-containing protein 3 (Mus musculus) (UniProt Q8R4B8). As to the kind of experiment: In vivo inhibition of NLRP3 inflammasome activation in LPS/ATP-induced acute peritonitis male C57BL/6J mouse model assessed as reduction in IL-1beta level in serum preadministered orally with compound for 1 hrs followed by LPS addition for 2 hrs and measured 12 hrs post ATP administration by ELISA. It counts as functional, organism-based. Conditions: dose 1-20 mg/kg, route po, time 13.0 hrs.
NACHT, LRR and PYD domains-containing protein 3 (Mus musculus), sequence (Q8R4B8 whole entry, the tested form may be a part): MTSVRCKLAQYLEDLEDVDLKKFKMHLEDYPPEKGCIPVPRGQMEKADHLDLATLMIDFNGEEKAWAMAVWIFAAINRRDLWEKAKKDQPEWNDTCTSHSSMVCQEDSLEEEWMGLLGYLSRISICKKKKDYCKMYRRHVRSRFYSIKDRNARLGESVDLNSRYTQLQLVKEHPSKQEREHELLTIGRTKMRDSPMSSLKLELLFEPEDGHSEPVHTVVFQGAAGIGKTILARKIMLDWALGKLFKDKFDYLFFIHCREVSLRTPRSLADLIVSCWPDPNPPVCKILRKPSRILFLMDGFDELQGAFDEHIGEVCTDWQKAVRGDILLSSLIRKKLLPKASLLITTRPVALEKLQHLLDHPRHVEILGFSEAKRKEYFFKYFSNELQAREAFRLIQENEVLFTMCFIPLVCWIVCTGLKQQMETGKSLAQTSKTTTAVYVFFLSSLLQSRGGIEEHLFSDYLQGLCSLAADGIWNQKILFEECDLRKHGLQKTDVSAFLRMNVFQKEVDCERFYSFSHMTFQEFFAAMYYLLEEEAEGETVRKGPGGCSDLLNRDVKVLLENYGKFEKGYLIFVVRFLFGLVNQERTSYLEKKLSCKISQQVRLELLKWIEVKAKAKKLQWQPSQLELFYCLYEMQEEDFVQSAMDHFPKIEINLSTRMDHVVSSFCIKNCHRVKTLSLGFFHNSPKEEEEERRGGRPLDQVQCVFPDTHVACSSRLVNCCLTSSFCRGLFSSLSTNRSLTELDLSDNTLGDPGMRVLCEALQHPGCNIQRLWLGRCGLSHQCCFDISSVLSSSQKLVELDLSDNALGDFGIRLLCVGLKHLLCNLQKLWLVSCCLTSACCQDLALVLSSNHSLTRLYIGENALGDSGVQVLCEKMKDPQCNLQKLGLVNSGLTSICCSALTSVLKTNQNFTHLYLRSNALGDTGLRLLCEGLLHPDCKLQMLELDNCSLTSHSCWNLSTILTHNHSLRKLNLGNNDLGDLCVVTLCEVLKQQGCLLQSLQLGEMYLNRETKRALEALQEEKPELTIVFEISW

Data set [10] deals with Mus musculus. As to the kind of experiment: Effect on TNF-alpha level in serum of LPS/ATP-induced acute peritonitis male C57BL/6J mouse model at 1 to 20 mg/kg, po preadministered with compound for 1 hrs followed by LPS addition for 2 hrs and measured 12 hrs post ATP administration by ELISA. It counts as functional, organism-based. Conditions: dose 1-20 mg/kg, time 13.0 hrs.

The subject of data set [11] is Mus musculus. As to the kind of experiment: Antidiabetic activity in HFD-fed STZ-induced diabetic kidney disease male C57BL/6J mouse model assessed as reduction in urine albumin-to-creatinine ratio at 20 mg/kg fed with high fat diet for 4 weeks followed by STZ administration for 5 days and measured 6 weeks post compound administration via gavage. It counts as functional, organism-based.

Data set [12] relates to Mus musculus. As to the kind of experiment: Antidiabetic activity in HFD-fed STZ-induced diabetic kidney disease male C57BL/6J mouse model assessed as reduction in glomerular thickening in kidney at 20 mg/kg fed with high fat diet for 4 weeks followed by STZ administration for 5 days and measured 6 weeks post compound administration via gavage by histological analysis. In kind it is functional, organism-based.

The subject of data set [13] is Mus musculus. The experiment in a line: Antidiabetic activity in HFD-fed STZ-induced diabetic kidney disease male C57BL/6J mouse model assessed as improvement of glucose tolerance at 20 mg/kg fed with high fat diet for 4 weeks followed by STZ administration for 5 days further administered with compound via gavage for 6 weeks and measured after 120 mins of glucose administration by OGTT. In kind it is functional, organism-based. The following applies: time 60600.0 min.

Data set [14] addresses Nlrp3/Pycard (Mus musculus) (UniProt Q8R4B8+Q9EPB4). As to the kind of experiment: In vivo inhibition of NLRP3-ASC protein-protein interaction in HFD-fed STZ-induced diabetic kidney disease male C57BL/6J mouse model at 20 mg/kg fed with high fat diet for 4 weeks followed by STZ administration for 5 days and measured 6 weeks post compound administration via gavage by co-immunoprecipitation based Western blot analysis. In kind it is functional, organism-based. For orientation: In western blotting, separated proteins are transferred to a membrane and probed.

Data set [15] concerns Mus musculus. As to the kind of experiment: Antidiabetic activity in HFD-fed STZ-induced diabetic kidney disease male C57BL/6J mouse model assessed as reduction in LDL-C level in serum at 20 mg/kg fed with high fat diet for 4 weeks followed by STZ administration for 5 days and measured 6 weeks post compound administration via gavage. In kind it is functional, organism-based.

Data set [16] relates to Mus musculus. The experiment in a line: Anti-colitis activity in DSS-induced acute ulcerative colitis male C57BL/6J mouse model assessed as improvement in stool consistency at 0.2 to 5 mg/kg, po preadministered with DSS for 7 days followed by 3 days of drinking water and measured after 10 days of compound administration. In kind it is functional, organism-based. Conditions: dose 0.2-5 mg/kg, time 10.0 day.

The test system of data set [17] is Mus musculus. As to the kind of experiment: Anti-colitis activity in DSS-induced acute ulcerative colitis male C57BL/6J mouse model assessed as reduction in fecal bleeding at 0.2 to 5 mg/kg, po preadministered with DSS for 7 days followed by 3 days of drinking water and measured after 10 days of compound administration. It counts as functional, organism-based. Conditions: dose 0.2-5 mg/kg, time 10.0 day.

For data set [18], the system named is Mus musculus. The experiment in a line: Anti-colitis activity in DSS-induced acute ulcerative colitis male C57BL/6J mouse model assessed as decrease in disease activity index score at 0.2 to 5 mg/kg, po preadministered with DSS for 7 days followed by 3 days of drinking water and measured after 10 days of compound administration. In kind it is functional, organism-based. The following applies: dose 0.2-5 mg/kg, time 10.0 day.

For data set [19], the system named is Mus musculus. The experiment in a line: Anti-colitis activity in DSS-induced acute ulcerative colitis male C57BL/6J mouse model assessed as increase in colon length at 0.2 to 5 mg/kg, po preadministered with DSS for 7 days followed by 3 days of drinking water and measured after 10 days of compound administration. In kind it is functional, organism-based. Conditions: dose 0.2-5 mg/kg, time 10.0 day.

In data set [20] the test system is Mus musculus. The experiment in a line: Anti-colitis activity in DSS-induced acute ulcerative colitis male C57BL/6J mouse model assessed as reduction in disruption of mucosal barrier in colon at 0.2 to 5 mg/kg, po preadministered with DSS for 7 days followed by 3 days of drinking water and measured after 10 days of compound administration by H and E staining based analysis. In kind it is functional, organism-based. Conditions: dose 0.2-5 mg/kg, time 10.0 day.

The subject of data set [21] is Mus musculus. The experiment in a line: Anti-colitis activity in DSS-induced acute ulcerative colitis male C57BL/6J mouse model assessed as reduction in depletion of goblet cells in colon at 0.2 to 5 mg/kg, po preadministered with DSS for 7 days followed by 3 days of drinking water and measured after 10 days of compound administration by H and E staining based analysis. It counts as functional, organism-based. The following applies: dose 0.2-5 mg/kg, time 10.0 day.

Data set [22] deals with Mus musculus. As to the kind of experiment: Anti-colitis activity in DSS-induced acute ulcerative colitis male C57BL/6J mouse model assessed as reduction in infiltration of inflammatory cells in colon at 0.2 to 5 mg/kg, po preadministered with DSS for 7 days followed by 3 days of drinking water and measured after 10 days of compound administration by H and E staining based analysis. In kind it is functional, organism-based. Conditions: dose 0.2-5 mg/kg, time 10.0 day.

For data set [23], the system named is Mus musculus. As to the kind of experiment: Anti-colitis activity in DSS-induced acute ulcerative colitis male C57BL/6J mouse model assessed as reduction in histologic severity score at 0.2 to 5 mg/kg, po preadministered with DSS for 7 days followed by 3 days of drinking water and measured after 10 days of compound administration. In kind it is functional, organism-based. Conditions: dose 0.2-5 mg/kg, time 10.0 day.

For data set [24], the target named is NACHT, LRR and PYD domains-containing protein 3 (Mus musculus) (UniProt Q8R4B8). The experiment in a line: In vivo inhibition of NLRP3 inflammasome activation in DSS-induced acute ulcerative colitis male C57BL/6J mouse model assessed as reduction in IL-1beta level in colon at 0.2 to 5 mg/kg, po preadministered with DSS for 7 days followed by 3 days of drinking water and measured after 10 days of compound administration by ELISA. In kind it is functional, organism-based. The following applies: dose 0.2-5 mg/kg, time 10.0 day.

Nlrp3/Pycard (Mus musculus), sequence (Q8R4B8 whole entry, looked up): as the sequence (Q8R4B8 whole entry, the tested form may be a part) above
Nlrp3/Pycard (Mus musculus), sequence (Q9EPB4 whole entry, looked up): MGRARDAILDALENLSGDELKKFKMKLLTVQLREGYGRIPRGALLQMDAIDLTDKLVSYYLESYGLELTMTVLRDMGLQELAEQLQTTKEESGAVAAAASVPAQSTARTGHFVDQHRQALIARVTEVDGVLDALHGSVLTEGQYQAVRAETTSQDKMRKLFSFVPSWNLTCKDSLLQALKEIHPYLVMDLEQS

As to `CN1CCC(N(C)S(=O)(=O)NC(=O)Nc2c3c(cc4c2CCC4)CCC3)CC1`, the CC50 in data set [1] is above 100 µM. The inhibition result in the data set with BMDM [2], with BMDM [3] and with BMDM [4] was “inactive” in each case. In addition, the concentration in data set [5] peaked (Cmax) at 35500 ng/mL. Also, the bioavailability in data set [6] came to 99.6%. For the same molecule, in the data set with Mus musculus [7], the survival at 1 mg/kg came to 75%. The survival at 20 mg/kg with Mus musculus [8] worked out at 100%. Moreover, the inhibition result in data set [9] is “Dose-dependent-effect”. The result in the data set with Mus musculus [10], in the data set on Mus musculus [13] and in the data set on Mus musculus [19] was inactive. Besides, the outcome in the data set with Mus musculus [11], with Mus musculus [12], with Mus musculus [15], in the data set with Mus musculus [16], in the data set with Mus musculus [17] and with Mus musculus [18] was Active. For the same molecule, the result in the data set on Mus musculus [20], with Mus musculus [21], with Mus musculus [22] and with Mus musculus [23] was Active. The inhibition entry in data set [14] and in data set [24] was “Active” in each case.
